Results as given in US12071488B2, “Method of sensitizing cancer cells to anti-cancer treatment” (TWO TO BIOTECH LTD., priority 2017, dated 2024).

Experiments:
estrogen receptor alpha = experiment: Western blot analysis of estrogen receptor alpha expression in MDA-MB-231 cells; type: cell-based, human; details: APC1 250 μg/ml once a week for one week or twice a week for 3 or 4 weeks
Excerpt: Abbreviations: M, protein parker; c, control; h, hour; w, week.
In view of the results shown above, the expression level of estrogen receptor alpha was directly assayed.

[1] = test system: TNBC cancer cells MDA-MB-231 and MDA-MB-468; experiment: Glutathione level in TNBC cells treated with APC1; type: cell-based, human; details: TNBC cancer cells (FIG. 18C)
Experimental: Gluthatione Assay Kit (Sigma CS0260);
Cell lines (MDA-MB-231, MDA-MB-468) were grown in 75 cm^2 cell culture flask, reached 80-90% confluence. The cells were treated with APC1 (250 μg/ml, 2 times per week for 1 week).
Cells were washed twice with 10 ml PBS, PBS (5 ml) was added and the cells were collected by scrapping, centrifuged at 300G, 4° C. for 5 minutes, the supernatant was then discarded and the cells were treated with APC1 as indicated above. The values of the Glutathione Standard Solutions were used to determine the standard curve and the delta A412/min equivalent to 1 nmole of reduced glutathione per well was calculated according to manufacturer's instructions.
As detailed above, the ovarian cancer cells OV90 and OV3, the pancreatic cancer cells BxPC3 and Panel and the TNBC cancer cells MDA-MB-231 and MDA-MB-468 were treated with APC1 and then the relative glutathione levels in these cells was measured as detailed above.

MDA-MB-468 cells = experiment: Analysis of apoptosis in MDA-MB-468 cells with APC1 and Herceptin; type: cell-based, human; details: Herceptin 12 μg/ml, APC1 250 μg/ml (FIG. 9)
Excerpt: (§1) Cells were examined for apoptosis or HER2 expression using FACS analysis. The HER2 antibody used was abcam ab16901. The marker Annexin (Enco) was used for assessment of apoptosis.

[2] = test system: human ovarian cancer cells (OV90); experiment: Relative tumor volume in nude mice inoculated with human ovarian cancer cells; type: in vivo; details: OV90 tumors
Experimental: During the treatment period, each mouse was weighted, and the tumor size was measured by Digital caliper.
When the tumors exceeded a volume of 40 mm^3 or 50 mm^3 (for OV90 and Panc1, respectively), the mice were randomly divided into four groups of 8 mice each, as follows. A control group was treated with saline only, the APC1-treated group was treated three times a week with doses of APC1 at 15 mg/kg each, the doxorubicin and APC treated group was treated twice a week with doses of APC1 (at 15 mg/kg each) and once a week with doxorubicin (at 3 mg/kg) and the doxorubicin-treated group was treated with doxorubicin only, once a week at a dose of 3 mg/kg. These dosing protocols were repeated throughout the experiment, namely for 5 weeks.

MDA-MB-231 cells [3] = experiment: Resazurin cell viability assay with APC1 and cisplatin or doxorubicin, MDA-MB-231 cells; type: cell-based, human; details: MDA-MB-231 pre-incubated with APC1 250 μg/ml; doxorubicin 0.3, 0.5, 1 μM, 48 hours; concentration dependent
Experimental: Cells treated with APC1 were seeded with APC1 at 250 μg/ml. The cells were incubated overnight.
Then the media was aspirated from the plates, and 100 μl of the treatment solutions were added to the appropriate wells, each treatment in triplicates. The cells were incubated for 48 hours.

MDA-MB-231 cells [4] = experiment: FACS analysis of apoptosis (Annexin) in MDA-MB-231 cells; type: cell-based, human
Excerpt: as §1

HER2 = HER2 immunohistochemistry of MDA-MB-231 tumor sections from nude mice; type: in vivo, Balb/C Nude mice; details: mice with MDA-MB-231 tumors; APC1 350 μg per mouse, three times per week, two weeks; vs saline
Experimental: MDA-MB-231 cells were grown in DMEM medium with Hepes (Gibco 41965-039) containing 10% heat inactivated Fetal Bovine Serum (Biological industries, #04-121-1A) and 1% Pen-Strep antibiotic (Biological industries, 03-031-1B) inside a 175 cm^2 flask (Nunc 178883). The cells were incubated at 37° C. in the presence of 5% CO2 and 95% humidity. The other cancer cells injected into mice (namely OV90 and Panc1) were prepared in a similar manner.
When a sufficient number of cells were present, the cells were centrifuged at 300 g for 5 minutes. The supernatant was discarded and 5-10 ml PBS (Biological Industries, #02-023-5A) was added to the cell pellet in order to wash the remaining medium. The cells were centrifuged again (same speed and time), the supernatant was discarded and 5-10 ml Saline was added to the cells. At this stage the cells were counted under a light microscope using a Hemocytometer, and saline was accordingly added to reach a concentration of 8×10^6 cells/200 μl.
Female Balb/C Nude mice (as detailed above) were retained in the Inventor's animal facility for at least 24 hours. Next all mice were intraperitoneally injected with 8×10^6 cells (in 200 μl saline) using a 27 G needle.
APC1 peptide was diluted in saline to the appropriate concentration in order to inject a dose of 350 μg/mouse. After the tumors reached the size of 0.5 cm×0.5 cm (usually 5 days) treatment of mice began. […]

EKGAAFSPIYPRRK (C terminal peptide of KTPAF50) [APC1, polypeptide consisting of the 14 C-terminal amino acid residues of the peptide KTPAF50]
expression level of estrogen receptor alpha (estrogen receptor alpha): clear increase
level of glutathione [1]: decreased
level of apoptosis (MDA-MB-468 cells): 15%
effect on tumor volume compared with doxorubicin-treated group ([2]; APC1 15 mg/kg three times a week): more pronounced
relative tumor volume ([2]; APC1 15 mg/kg, doxorubicin 3 mg/kg once a week, 5 weeks, control increased linearly): modest increases
sensitivity to doxorubicin (relative cell viability) (MDA-MB-231 cells [3]): increased the sensitivity
apoptosis with APC1 per se (MDA-MB-231 cells [4]; APC1 alone (FIG. 5A and FIG. 5B)): insignificant (if any)
level of cellular apoptosis (MDA-MB-231 cells [4]; MDA-MB-231, prolonged incubation, Kadcyla 96 hours (FIG. 6)): low level of apoptosis
HER2 expression on the cell surface of tumor cells (immunohistochemistry) (HER2): clear HER2 expression
